Test results taken from ChEMBL document CHEMBL1151822, “Saldedines A and B, dibromo proaporphine alkaloids from a Madagascan tunicate” (J Nat Prod, 2009).

Experiment: Toxicity in Artemia salina
Type: organism-based
Conditions: in vivo, read-out: LD50 (the source's name)

COc1cc2c3c(c1O)C1(C=C(Br)C(O)C(Br)=C1)C[C@@H]3N(C)CC2 (some centres not stated) [SALDEDINE B]
LC50: 10.9 µM

COc1cc2c3c(c1O)C1(C=C(Br)C(=O)C(Br)=C1)C[C@@H]3N(C)CC2 [SALDEDINE A]
LC50: 4.4 µM
